# Assays:
# velvetleaf = assay: Test A pre-/postemergence greenhouse test; format: in vivo, Abutilon theophrasti; conditions: for Plant response rating, Velvetleaf: 0 to 100 scale where 0 is no effect and 100 is complete control; for Velvetleaf plant response rating: 0 to 100 scale
# Method in brief: (§1)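 Visual injury ratings against untreated controls, taken roughly ten days after treatment in greenhouse. Plants were sprayed postemergence at one- to two-leaf stage (2–10 cm tall); at the same time, seeded loam/sand soil received a directed preemergence spray. Formulation: non-phytotoxic solvent mixture with surfactant.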
# Italian ryegrass = assay: Test C pre-/postemergence test; format: in vivo, Lolium multiflorum
# Method in brief: (§2)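 Compounds in a non-phytotoxic solvent with surfactant applied preemergence to seeded pots and, at the same time, postemergence to plants 2–18 cm tall (1- to 4-leaf stage). Paddy tests: pots flooded to 3 cm, compound applied into the water, depth held throughout.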
# crabgrass [1] = assay: Test C pre-/postemergence test; format: in vivo, Digitaria sanguinalis
# Method in brief: as §2
# duck salad = assay: Test C flooded paddy test; format: in vivo, Heteranthera limosa; conditions: Flood
# Method in brief: (§3)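 Pots were flooded to 3 cm above the soil surface at treatment, compound applied directly to the paddy water, and that depth held throughout. Plants were kept in a greenhouse for 13 to 15 days, then visually rated against untreated controls.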
# yellow nutsedge = assay: Test C pre-/postemergence test; format: in vivo, Cyperus esculentus
# Method in brief: as §2
# bermudagrass = assay: Test C pre-/postemergence test; format: in vivo, Cynodon dactylon
# Method in brief: as §2
# green foxtail = assay: Test C pre-/postemergence test; format: in vivo, Setaria viridis
# Method in brief: as §2
# corn [2] = assay: Test C pre-/postemergence test; format: in vivo, Zea mays
# Method in brief: as §2
# corn [3] = assay: Test A pre-/postemergence greenhouse test; format: in vivo, Zea mays; conditions: for Plant response rating, Corn: 0 to 100 scale where 0 is no effect and 100 is complete control; for Corn plant response rating: 0 to 100 scale
# Method in brief: as §1
# soybean = assay: Test C pre-/postemergence test; format: in vivo, Glycine max
# Method in brief: as §2
# barnyardgrass [4] = assay: Test A pre-/postemergence greenhouse test; format: in vivo, Echinochloa crus-galli; conditions: for Plant response rating, Barnyardgrass: 0 to 100 scale where 0 is no effect and 100 is complete control; for Barnyardgrass plant response rating: 0 to 100 scale
# Method in brief: as §1
# barnyardgrass [5] = assay: Test C flooded paddy test; format: in vivo, Echinochloa crus-galli; conditions: Flood
# Method in brief: as §3
# Goosegrass = assay: Test C pre-/postemergence test; format: in vivo, Eleusin indica
# Method in brief: as §2
# crabgrass [6] = assay: Test A pre-/postemergence greenhouse test; format: in vivo, Digitaria sanguinalis; conditions: for Plant response rating, Crabgrass, Large: 0 to 100 scale where 0 is no effect and 100 is complete control; for Crabgrass, Large plant response rating: 0 to 100 scale
# Method in brief: as §1
# johnsongrass = assay: Test C pre-/postemergence test; format: in vivo, Sorghum halepense
# Method in brief: as §2
# pigweed = assay: Test C pre-/postemergence test; format: in vivo, Amaranthus retroflexus
# Method in brief: as §2
# umbrella sedge = assay: Test C flooded paddy test; format: in vivo, Cyperus difformis; conditions: Flood
# Method in brief: as §3
# [7] = Postemergence, 500 g ai/ha, 0 is no effect, 100 is complete control
# [8] = Preemergence, 125 g ai/ha, 0 no effect, 100 complete control
# [9] = 62 g ai/ha, Preemergence, scale 0 to 100
# [10] = 125 g ai/ha, preemergence, scale 0 (no effect) to 100 (complete control)
# [11] = Postemergence, 125 g ai/ha, scale 0 to 100, 0 no effect, 100 complete control
# [12] = Postemergence, 250 g ai/ha, scale 0 to 100, 0 no effect, 100 complete control
# [13] = Preemergence, 31 g ai/ha, scale 0 to 100 (0 no effect, 100 complete control)
# [14] = preemergence, 250 g ai/ha, scale 0 (no effect) to 100 (complete control)
# [15] = Postemergence, 62 g ai/ha, scale 0 to 100, 0 no effect, 100 complete control
# [16] = 62 g ai/ha, scale 0 to 100 (0 no effect, 100 complete control)
# [17] = 250 g ai/ha, scale 0 to 100, 0 no effect, 100 complete control, 13 to 15 days
smiles,measurement,setting,value
Cn1nc(C(F)(F)F)c(C[S+]([O-])c2ccc(F)c[n+]2[O-])c1OC(F)F (stereo not drawn) [Compound 58],"Plant response rating, Velvetleaf","velvetleaf; Postemergence, 125 g ai/ha",60
same,Velvetleaf plant response rating,velvetleaf; [7],80
same,Velvetleaf plant response rating,velvetleaf; [8],60
same,"Plant response rating, Velvetleaf","velvetleaf; Preemergence, 500 g ai/ha",100
same,"Ryegrass, Italian plant response rating",Italian ryegrass; [9],70
same,"Ryegrass, Italian plant response rating",Italian ryegrass; [10],98
same,"Plant response rating (0 to 100), Ryegrass, Italian","Italian ryegrass; Postemergence, 31 g ai/ha",0
same,"Plant response rating (0 to 100), Ryegrass, Italian","Italian ryegrass; Postemergence, 62 g ai/ha",40
same,"Plant response rating, Ryegrass, Italian",Italian ryegrass; [11],70
same,"Plant response rating, Ryegrass, Italian",Italian ryegrass; [12],90
same,"Plant response rating, Ryegrass, Italian",Italian ryegrass; [13],40
same,"Ryegrass, Italian plant response rating",Italian ryegrass; [14],100
same,"Crabgrass, Large plant response rating",crabgrass [1]; [9],100
same,"Crabgrass, Large plant response rating",crabgrass [1]; [10],100
same,"Plant response rating (0 to 100), Crabgrass, Large","crabgrass [1]; Postemergence, 31 g ai/ha",0
same,"Plant response rating, Crabgrass, Large",crabgrass [1]; [15],0
same,"Plant response rating, Crabgrass, Large",crabgrass [1]; [11],0
same,"Plant response rating, Crabgrass, Large",crabgrass [1]; [12],45
same,"Plant response rating, Crabgrass, Large",crabgrass [1]; [13],50
same,"Crabgrass, Large plant response rating",crabgrass [1]; [14],100
same,"Plant response rating, Ducksalad",duck salad; [16],70
same,"Plant response rating, Ducksalad",duck salad; [17],80
same,"Nutsedge, Yellow plant response rating",yellow nutsedge; [9],40
same,"Nutsedge, Yellow plant response rating",yellow nutsedge; [10],70
same,"Plant response rating (0 to 100), Nutsedge, Yellow","yellow nutsedge; Postemergence, 31 g ai/ha",0
same,"Plant response rating, Nutsedge, Yellow",yellow nutsedge; [15],0
same,"Plant response rating, Nutsedge, Yellow",yellow nutsedge; [11],0
same,"Plant response rating, Nutsedge, Yellow",yellow nutsedge; [12],50
same,"Plant response rating, Nutsedge, Yellow",yellow nutsedge; [13],0
same,"Nutsedge, Yellow plant response rating",yellow nutsedge; [14],98
same,Bermudagrass plant response rating,"bermudagrass; 62 g ai/ha, Preemergence, scale 0 to 100 (0 no effect, 100 complete control)",100
same,Bermudagrass plant response rating,bermudagrass; [10],100
same,"Plant response rating (0 to 100), Bermudagrass","bermudagrass; Postemergence, 31 g ai/ha",0
same,"Plant response rating, Bermudagrass",bermudagrass; [15],0
same,"Plant response rating, Bermudagrass",bermudagrass; [11],20
same,"Plant response rating, Bermudagrass",bermudagrass; [12],40
same,"Plant response rating, Bermudagrass",bermudagrass; [13],100
same,Bermudagrass plant response rating,bermudagrass; [14],100
same,"Foxtail, Green plant response rating",green foxtail; [9],98
same,"Foxtail, Green plant response rating",green foxtail; [10],100
same,"Plant response rating (0 to 100), Foxtail, Green","green foxtail; Postemergence, 31 g ai/ha",0
same,"Plant response rating, Foxtail, Green",green foxtail; [15],25
same,"Plant response rating, Foxtail, Green",green foxtail; [11],50
same,"Plant response rating, Foxtail, Green",green foxtail; [12],80
same,"Plant response rating, Foxtail, Green",green foxtail; [13],70
same,"Foxtail, Green plant response rating",green foxtail; [14],100
same,Corn plant response rating,corn [2]; [9],100
same,Corn plant response rating,corn [2]; [10],100
same,"Plant response rating (0 to 100), Corn","corn [2]; Postemergence, 31 g ai/ha",0
same,"Plant response rating, Corn",corn [2]; [15],0
same,"Plant response rating, Corn",corn [2]; [11],0
same,"Plant response rating, Corn",corn [2]; [12],0
same,"Plant response rating, Corn",corn [2]; [13],75
same,Corn plant response rating,corn [2]; [14],100
same,"Plant response rating, Corn","corn [3]; Postemergence, 125 g ai/ha",50
same,Corn plant response rating,corn [3]; [7],70
same,Corn plant response rating,corn [3]; [8],40
same,"Plant response rating, Corn","corn [3]; Preemergence, 500 g ai/ha",90
same,Soybean plant response rating,soybean; [9],100
same,Soybean plant response rating,soybean; [10],100
same,"Plant response rating (0 to 100), Soybean","soybean; Postemergence, 31 g ai/ha",20
same,"Plant response rating (0 to 100), Soybean","soybean; Postemergence, 62 g ai/ha",40
same,"Plant response rating, Soybean",soybean; [11],60
same,"Plant response rating, Soybean",soybean; [12],65
same,"Plant response rating, Soybean",soybean; [13],0
same,Soybean plant response rating,soybean; [14],100
same,"Plant response rating, Barnyardgrass","barnyardgrass [4]; Postemergence, 125 g ai/ha",80
same,Barnyardgrass plant response rating,barnyardgrass [4]; [7],90
same,Barnyardgrass plant response rating,barnyardgrass [4]; [8],90
same,"Plant response rating, Barnyardgrass","barnyardgrass [4]; Preemergence, 500 g ai/ha",90
same,"Plant response rating, Barnyardgrass",barnyardgrass [5]; [16],65
same,"Plant response rating, Barnyardgrass",barnyardgrass [5]; [17],85
same,Goosegrass plant response rating,Goosegrass; [9],90
same,Goosegrass plant response rating,Goosegrass; [10],100
same,"Plant response rating (0 to 100), Goosegrass","Goosegrass; Postemergence, 31 g ai/ha",0
same,"Plant response rating, Goosegrass",Goosegrass; [15],0
same,"Plant response rating, Goosegrass",Goosegrass; [11],5
same,"Plant response rating, Goosegrass",Goosegrass; [12],60
same,"Plant response rating, Goosegrass",Goosegrass; [13],80
same,Goosegrass plant response rating,Goosegrass; [14],100
same,"Plant response rating, Crabgrass, Large","crabgrass [6]; Postemergence, 125 g ai/ha",80
same,"Crabgrass, Large plant response rating",crabgrass [6]; [7],90
same,"Crabgrass, Large plant response rating",crabgrass [6]; [8],80
same,"Plant response rating, Crabgrass, Large","crabgrass [6]; Preemergence, 500 g ai/ha",100
same,Johnsongrass plant response rating,johnsongrass; [9],95
same,Johnsongrass plant response rating,johnsongrass; [10],100
same,"Plant response rating (0 to 100), Johnsongrass","johnsongrass; Postemergence, 31 g ai/ha",0
same,"Plant response rating, Johnsongrass",johnsongrass; [15],0
same,"Plant response rating, Johnsongrass",johnsongrass; [11],10
same,"Plant response rating, Johnsongrass",johnsongrass; [12],60
same,"Plant response rating, Johnsongrass",johnsongrass; [13],85
same,Johnsongrass plant response rating,johnsongrass; [14],100
same,Pigweed plant response rating,pigweed; [9],100
same,Pigweed plant response rating,pigweed; [10],100
same,"Plant response rating (0 to 100), Pigweed","pigweed; Postemergence, 31 g ai/ha",0
same,"Plant response rating (0 to 100), Pigweed","pigweed; Postemergence, 62 g ai/ha",0
same,"Plant response rating, Pigweed",pigweed; [11],5
same,"Plant response rating, Pigweed",pigweed; [12],10
same,"Plant response rating, Pigweed",pigweed; [13],100
same,Pigweed plant response rating,pigweed; [14],100
same,"Plant response rating, Sedge, Umbrella",umbrella sedge; [16],80
same,"Plant response rating, Sedge, Umbrella",umbrella sedge; [17],80
